According to US20110117627A1, “REGULATION OF APOPTOSIS BY NEURAL SPECIFIC SPLICE VARIANTS OF IG20” (The Board of Trustees of the University of Illinois, priority 2008, published 2011):
Entries after “also recorded” stand apart in the source; their conditions may differ. Where a SMILES comes first, the peptide text is derived from it. The star is where a group is joined. Cbz = O=C(OCc1ccccc1)*; CH2F = FC*

Assays:
Format in all cases: cell-based, human
SK-N-SH cells = experiment: Caspase-8 inhibition, apoptosis by Annexin V-PE/7-AAD; conditions: 40 μM and 80 μM for two days
Method: FIG. 6. Down modulation of KIAA0358 or selective expression of IG20-SV4 enhances apoptosis through expression/activation of caspase-8 in SK-N-SH cells. (A) Effects of cycloheximide on expression/activation of caspase-8. Three days post-transduction with shRNA-expressing virus, SK-N-SH cells were treated with 10 μg/ml cycloheximde (a protein synthesis inhibitor) for two days. Whole cell lysates were subjected to western blot analysis. (B) Caspase-8 reporter assay. SK-N-SH cells were cotransfected with pGL4.17-caspase-8 promoter vector, pSV40-Renilla luciferase vector and pEYFP-C1/or pEYFP-IG20-SV4 using Lipofectamine2000, 48 hrs later, cells were collected and analyzed for luciferase activity with the Dual-Luciferase Reporter Assay System (Promega). (C) and (D) Effects of caspase-8 inhibition. Three days post-transduction with shRNA-expressing virus, SK-N-SH cells were treated with 40 μM and 80 μM of Z-1ETD-FMK (a caspase 8 inhibitor) for two days. Collected cells were either subjected to Annexin V-PE/7-AAD stain for FACS analysis (C) or western blot analysis (D). (C) Percentage apoptosis in cells transduced with different shRNAs in the presence or absence of the caspase inhibitor. The P-value was **P<0.01 for Z-IETD-FMK treated vs untreated. […] Representative data are from three independent experiments.
Caspase-8 inhibition. […]

caspase-8 [1] = experiment: Caspase-8 inhibition, western blot; conditions: SK-N-SH cells, 40 μM and 80 μM
Method: (§1) FIG. 6. Down modulation of KIAA0358 or selective expression of IG20-SV4 enhances apoptosis through expression/activation of caspase-8 in SK-N-SH cells. (A) Effects of cycloheximide on expression/activation of caspase-8. Three days post-transduction with shRNA-expressing virus, SK-N-SH cells were treated with 10 μg/ml cycloheximde (a protein synthesis inhibitor) for two days. Whole cell lysates were subjected to western blot analysis. (B) Caspase-8 reporter assay. SK-N-SH cells were cotransfected with pGL4.17-caspase-8 promoter vector, pSV40-Renilla luciferase vector and pEYFP-C1/or pEYFP-IG20-SV4 using Lipofectamine2000, 48 hrs later, cells were collected and analyzed for luciferase activity with the Dual-Luciferase Reporter Assay System (Promega). (C) and (D) Effects of caspase-8 inhibition. Three days post-transduction with shRNA-expressing virus, SK-N-SH cells were treated with 40 μM and 80 μM of Z-1ETD-FMK (a caspase 8 inhibitor) for two days. […]
(§2) Western Blot Analysis. […] The protein content was determined using a dye-binding microassay (Bio-Rad), and after boiling the samples for 2 min in a 1× SDS protein sample buffer, 20 μg of protein per lane was loaded and separated on 10% SDS-polyacrylamide gel. […] Proteins were detected using an enhanced chemiluminescence plus western blotting detection system (Amersham, UK). […]

caspase-8 [2] = experiment: Cycloheximide treatment of transduced SK-N-SH cells, western blot of caspase-8; conditions: 10 μg/mL cycloheximide
Method: as §1, with “(Promega).” for “(Promega). (C) and (D) Effects of caspase-8 inhibition. Three days post-transduction with shRNA-expressing virus, SK-N-SH cells were treated with 40 μM and 80 μM of Z-1ETD-FMK (a caspase 8 inhibitor) for two days.”
To determine whether the increased apoptosis induced utilizing 34+13L shRNA was due to modulation of the expression of caspase-8, the expression of caspase-8 transcripts was measured in SK-N-SH cells treated with the different combinations of siRNAs. […]
as §2

Row | SMILES | apoptosis in cells treated with shRNA targeting 34E (SK-N-SH cells) | apoptotic effect caused by down-modulation of KIAA0358 (SK-N-SH cells) | effect on caspase-8 expression (western blot) (caspase-8 [1]) | expression of caspase-8 protein (caspase-8 [2])
1 | CC[C@H](C)[C@H](NC(=O)OCc1ccccc1)C(=O)N[C@@H](CCC(=O)OC)C(=O)N[C@H](C(=O)N[C@@H](CC(=O)OC)C(=O)CF)[C@@H](C)O [Z-IETD-FMK] (Cbz-IE(OMe)TD(OMe)-CH2F) | did not significantly affect apoptosis | significantly attenuated the apoptotic effect | inhibitory effect | –
2 | C[C@@H]1C[C@@H]([C@H](O)CC2CC(=O)NC(=O)C2)C(=O)[C@@H](C)C1 [cycloheximide] | – | – | – | inhibited the expression of caspase-8 protein; also recorded: the induced caspase-8 was inhibited
